According to PMC12321279, “Novel 4,5‐Dihydrothiazole‐Phenylpiperazine Derivatives: Synthesis, Docking Studies and Pharmacological Evaluation as Serotonergic Agents” (Chemmedchem, 2025):
Read-outs that look alike come from different tables or passages of the source.

How the values were obtained:
5‐HT1A receptor [1] = biological target: T1, 5‐HT1A receptor (Rattus norvegicus, UniProt P19327); test: 5‐HT1A receptor activation in the [35S]GTP‐γ‐S assay (hippocampal membranes); type: biochemical; conditions: [35S]GTPγS; for Emax / Emax (%) ± SEM, 5‐HT1A receptor G‐protein stimulation / pEC50, 5‐HT1A receptor G‐protein stimulation / EC50 (95% CI, μM), 5‐HT1A receptor G‐protein stimulation / EC50: rat hippocampal membranes; for Emax: read-out: Emax (%) ± SEM, 5‐HT1A receptor G‐protein stimulation; for agonist activity for the 5‐HT1A receptor (classification in words): efficacy compared with 8‐OH‐DPAT
T1 construct: 80 μg of hippocampal membrane suspension (the 5‐HT1A assay); from tissue; host or cells: rat (Sprague-Dawley) hippocampus membranes
T1 sequence (P19327 1-422): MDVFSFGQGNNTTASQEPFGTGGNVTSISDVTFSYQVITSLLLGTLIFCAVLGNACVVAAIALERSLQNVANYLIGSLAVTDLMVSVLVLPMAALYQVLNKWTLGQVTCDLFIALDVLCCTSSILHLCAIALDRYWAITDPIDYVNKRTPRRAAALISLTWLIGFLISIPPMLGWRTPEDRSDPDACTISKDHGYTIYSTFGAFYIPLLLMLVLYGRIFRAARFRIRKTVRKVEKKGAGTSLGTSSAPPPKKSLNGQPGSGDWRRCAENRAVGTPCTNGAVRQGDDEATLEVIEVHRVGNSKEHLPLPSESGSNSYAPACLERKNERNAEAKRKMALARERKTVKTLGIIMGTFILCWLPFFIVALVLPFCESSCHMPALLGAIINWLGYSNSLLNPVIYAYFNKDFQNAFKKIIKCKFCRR
Method: Seven compound concentrations equally spaced on a log scale (10–4 M to 10–10 M) were incubated in duplicate with hippocampal membrane preparations (5μg per well) in assay buffer (50 mM Tris‐HCl, pH = 7.4, 1 mM EGTA, 3 mM MgCl2, 100 mM NaCl, and 30 μM GDP) and 0.08 nM [^35S]GTP‐γ‐S (specific activity: 1250 Ci mmole^−1, Revvity). Nonspecific binding was determined with 10μM of unlabeled GTP‐γ‐S. The final DMSO concentration in the assay was 5%. The reaction mixture was incubated for 90 min. at 30 °C on an orbital shaker set at 250 rpm. Next, the reaction mixture was deposited under vacuum with the FilterMate Harvester (Revvity, USA) onto Unifilter GF/C Plates (Revvity, MA, USA) presoaked with wash buffer (50 mM Tris‐HCl, pH = 7.4). The wells were then rapidly washed with 2 mL of wash buffer. Filter plates were dried overnight at room temperature. Once completely dry, 35 μl of MicroScint PS (Revvity, MA, USA) scintillation fluid was added to each well. Radioactivity was counted in a MicroBeta2 LumiJet scintillation counter (Revvity, MA, USA). Data were analyzed with GraphPad Prism 5.0 software (GraphPad Software, San Diego California USA, www.graphpad.com). The curves were fitted with three‐parameter non‐linear regression model.

5‐HT2A receptor [2] = biological target: T2, 5‐HT2A receptor (Rattus norvegicus, UniProt P14842); test: 5‐HT2A competition binding assay ([3H]ketanserin, frontal cortex membranes); design: from tissue; host or cells: rat (Sprague-Dawley) frontal cortex membranes; conditions: 1 nM [3H]ketanserin
5‐HT2C receptor = biological target: T3, 5‐HT2C receptor (Rattus norvegicus, UniProt P08909); test: 5‐HT2C competition binding assay ([3H]mesulergine, frontal cortex membranes); conditions: 5 nM [3H]mesulergine
T3 construct: 10 μM pargyline and 160μg of the frontal cortex membrane suspension; from tissue; host or cells: rat (Sprague-Dawley) frontal cortex membranes
T3 sequence (P08909 33-460): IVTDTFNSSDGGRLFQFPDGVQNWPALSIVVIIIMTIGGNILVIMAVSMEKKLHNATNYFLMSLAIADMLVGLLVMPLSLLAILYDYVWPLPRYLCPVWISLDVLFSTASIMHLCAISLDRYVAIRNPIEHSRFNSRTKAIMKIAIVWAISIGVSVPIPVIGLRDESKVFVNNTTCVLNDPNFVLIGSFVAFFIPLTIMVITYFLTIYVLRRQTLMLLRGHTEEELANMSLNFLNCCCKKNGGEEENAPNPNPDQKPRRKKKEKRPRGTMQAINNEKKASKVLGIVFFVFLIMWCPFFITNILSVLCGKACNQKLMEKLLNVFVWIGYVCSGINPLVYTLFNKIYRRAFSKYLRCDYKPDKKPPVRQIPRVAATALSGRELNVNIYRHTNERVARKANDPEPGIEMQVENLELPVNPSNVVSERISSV
Method: (§1) Sprague‐Dawley rats were sacrificed by isoflurane overdose. Brains were rapidly removed and placed on ice. Hippocampi (for the 5‐HT1A assay) and frontal cortices (for the 5‐HT2A and 5‐HT2C assays) were dissected on a Petri dish. The tissue from 10 rats was homogenized in 30 vol. homogenization buffer (50 mM Tris–HCl, […], 1 mM EDTA, 1 mM dithiothreitol) with a handheld Teflon‐glass homogenizer. The homogenate was centrifuged at 48,000 × g at 4 °C for 15 min. The pellet was suspended and homogenized in the homogenization buffer and incubated for 10 min. at 36 °C. The centrifugation and suspension steps were repeated twice. The final pellet was homogenized in 5 vol. 50 mM Tris–HCl, pH = 7.4 buffer and stored at −80 °C for no longer than 6 months. […] For the 5‐HT2C assay, compounds were incubated in duplicate with 5 nM [^3H]mesulergine (specific activity: 80.2 Ci mmol^−1, Revvity, MA, USA) for 60 min. at 36 °C in a 50 mM Tris‐HCl (pH 7.4) buffer, supplemented with 5 mM MgCl2, 140 mM NaCl, 1 mM DTT, 1 mM CaCl2, 10 μM pargyline and 160μg of the frontal cortex membrane suspension. Non‐specific binding was determined with 10μM serotonin. The final DMSO concentration in the assay was 5%. After incubation, the reaction mixture was deposited onto Unifilter GF/C plates (Revvity, MA, USA) presoaked in 0.4% PEI (or 0.4% PEI and 0.5% Triton X‐100 for the 5‐HT2C assay) for 1 h with the FilterMate‐96 Harvester (Revvity, MA, USA). Then, each well was washed with 2 mL of 50 mM Tris–HCl (pH 7.4) buffer to separate bound ligands from free and the plates were left to dry overnight. Then, 35μl of Microscint‐20 scintillation fluid (Revvity, MA, USA) was added to each filter well and left to equilibrate for 2h. Filter‐bound radioactivity was counted in a MicroBeta2 LumiJet scintillation counter (Revvity, MA, USA). Binding curves were fitted with one site non‐linear regression. Binding affinity (pKi and Ki) for each compound was calculated from the […] values with the Cheng‐Prusoff equation from two separate experiments.

5‐HT1A receptor [3] = biological target: T1, 5‐HT1A receptor; test: 5‐HT1A competition binding assay ([3H]8‐OH‐DPAT, hippocampal membranes); conditions: 1 nM [3H]8‐OH‐DPAT
Method: as §1

5‐HT2A receptor [4] = biological target: T2, 5‐HT2A receptor; test: Inhibition of 5‐HT‐evoked contractions in isolated rat ileum; design: segments (1–1.5 cm) of ileum were removed, flushed of luminal contents, and placed in Krebs solution; from tissue; host or cells: isolated rat (Sprague-Dawley) ileum segments; conditions: 5‐HT 10^−5 M, compounds 10^−8–10^−5 M
Method: Male rats (Sprague‐Dawley, 160–200 g; Charles River Laboratories; Calco, Italy) were manipulated and cared for in strict compliance with the principles of laboratory animal care. Experimental procedures were conducted in conformity with Italian (D.L. 26/2014) and European (directive 2010/63/EU) regulations on the protection of animals used for scientific purposes and approved by the Italian Ministry. Animal housing complied with recent pharmacological guidance.^[ [40] ^] All animals weighing 160–200 g were used after a 1‐week acclimation period (temperature 23 ± 2 °C; humidity 60%, free access to water and standard food).
The segments were prepared as previously described:^[ [41] ^] the segments were set up in such a way as to record contractions mainly from the longitudinal axis, in an organ bath containing 20 mL of Krebs solution, bubbled with 95% O2 and 5% CO2 and maintained at 37 °C. The tissues were connected to an isotonic transducer (load: 0.5 g), connected to Power Lab system (Ugo Basile, Comerio, Italy). Ileal segments were equilibrated for 60 min^[ [16] ^] followed by three repeated additions of submaximal concentration of 5‐HT (10^−5 M) in order to record stable control contractions. […] The contact time for each concentration was 10 min. The compounds were dissolved in DMSO. […] Results are expressed as mean (SEM). […] The IC50 and Emax values were calculated with the aid of a computer program (GraphPad Prism 5).

[5] = 95% CI in brackets, read-out: 5‐HT2A Ki (95% CI)
[6] = 95% CI in brackets, read-out: 5‐HT2C Ki (95% CI)
[7] = 95% CI in brackets, read-out: 5‐HT1A Ki (95% CI)
[8] = read-out: 5‐HT1A pKi (converted)
[9] = 95% CI in brackets, read-out: EC50 (95% CI, μM), 5‐HT1A receptor G‐protein stimulation
[10] = read-out: 5‐HT2C pKi (converted)

T2 sequence (P14842 whole entry): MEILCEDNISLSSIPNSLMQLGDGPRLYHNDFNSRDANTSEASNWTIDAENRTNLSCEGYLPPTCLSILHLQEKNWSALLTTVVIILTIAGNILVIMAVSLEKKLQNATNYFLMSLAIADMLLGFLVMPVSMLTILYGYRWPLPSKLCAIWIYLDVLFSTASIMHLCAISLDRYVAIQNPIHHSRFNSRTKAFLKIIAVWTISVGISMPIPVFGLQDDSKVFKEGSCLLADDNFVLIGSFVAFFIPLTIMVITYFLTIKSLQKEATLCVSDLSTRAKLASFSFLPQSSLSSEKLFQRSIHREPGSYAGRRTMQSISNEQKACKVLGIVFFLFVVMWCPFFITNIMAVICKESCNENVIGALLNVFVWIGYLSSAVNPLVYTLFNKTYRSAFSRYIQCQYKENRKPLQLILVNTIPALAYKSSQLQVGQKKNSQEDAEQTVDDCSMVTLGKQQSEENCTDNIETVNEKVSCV

SMILES	Emax (5‐HT1A receptor [1]) [%]	Ki (5‐HT2A receptor [2]; [5]) [µM]	Emax (%) ± SEM, 5‐HT1A receptor G‐protein stimulation (5‐HT1A receptor [1])	pEC50, 5‐HT1A receptor G‐protein stimulation (5‐HT1A receptor [1])	EC50 (95% CI, μM), 5‐HT1A receptor G‐protein stimulation (5‐HT1A receptor [1]; 95% CI in brackets)	agonist activity for the 5‐HT1A receptor (classification in words) (5‐HT1A receptor [1])	Ki (5‐HT2C receptor; [6]) [µM]	Ki (5‐HT1A receptor [3]; [7]) [µM]	Ki (5‐HT1A receptor [3]; [8]) [µM]	EC50 (5‐HT1A receptor [1]; [9]) [µM]	Ki (5‐HT2C receptor; [10]) [µM]	other results
CCCN(CCC)C1CCc2cccc(O)c2C1 (stereo not shown) [8‐OH‐DPAT, 8‐hydroxy‐dipropylaminotetraline, reference compound]	177 ± 1.2	–	–	–	–	–	–	–	–	–	–	–
O=C(NCCCN1CCN(c2ccc(C3=NCCS3)cc2)CC1)c1ccccn1 [FG‐3, N‐(3‐(4‐(4‐(4,5‐dihydrothiazol‐2‐yl) phenyl) piperazin‐1‐yl) propyl) picolinamide]	–	6.3	No activity	No activity	No activity	do not express any agonist activity	1.46	4.5	4.57	–	–	–
O=C1C2C3C=CC(C3)C2C(=O)N1OCCCN1CCN(c2ccc(C3=NCCS3)cc2)CC1 (stereo not shown) [FG‐9, 2‐(3‐(4‐(4‐(4,5‐dihydrothiazol‐2‐yl) phenyl) piperazin‐1‐yl) propoxy)‐3a,4,7,7a‐tetrahydro‐1H‐4,7‐methanoisoindole‐1,3(2H)‐dione]	–	14.1	No activity	No activity	No activity	do not express any agonist activity	2.03	–	72.4	–	–	–
O=C1C2C3C=CC(O3)C2C(=O)N1OCCCN1CCN(c2ccccc2C2=NCCS2)CC1 (stereo not shown) [FG‐10, 2‐(3‐(4‐(2‐(4,5‐dihydrothiazol‐2‐yl) phenyl) piperazin‐1‐yl) propoxy)‐3a,4,7,7a‐tetrahydro‐1H‐4,7‐epoxyisoindole‐1,3(2H)‐dione]	120 ± 14.9	3.84	–	–	–	–	–	0.61	–	52	3.24	–
O=C1C2C3C=CC(O3)C2C(=O)N1OCCCN1CCN(c2cccc(C3=NCCS3)c2)CC1 (stereo not shown) [FG‐11, 2‐(3‐(4‐(3‐(4,5‐dihydrothiazol‐2‐yl) phenyl) piperazin‐1‐yl) propoxy)‐3a,4,7,7a‐tetrahydro‐1H‐4,7‐epoxyisoindole‐1,3(2H)‐dione]	–	1.48	No activity	No activity	No activity	do not express any agonist activity	40.5	2.2	–	–	–	Emax (5‐HT2A receptor [4]; read-out: EMAX, maximal inhibitory effect on 5‐HT‐induced contractions in the rat ileum): 28.7%; IC50 (5‐HT2A receptor [4]; IC50, inhibition of 5‐HT‐induced contractions in the rat ileum, contact time 10 min): 4.39 µM
O=C1C2C3C=CC(O3)C2C(=O)N1OCCCN1CCN(c2ccc(C3=NCCS3)cc2)CC1 (stereo not shown) [FG‐12, 2‐(3‐(4‐(4‐(4,5‐dihydrothiazol‐2‐yl) phenyl) piperazin‐1‐yl) propoxy)‐3a,4,7,7a‐tetrahydro‐1H‐4,7‐epoxyisoindole‐1,3(2H)‐dione]	135 ± 18.2	6.93	–	–	–	–	0.286	–	63.1	46.2	–	–
O=C(NCCCN1CCN(c2ccccc2C2=NCCS2)CC1)C1CC2C=CC1C2 (stereo not drawn) [FG‐13, Exo‐N‐(3‐(4‐(2‐(4,5‐dihydrothiazol‐2‐yl)phenyl)piperazin‐1‐yl)propyl) bicyclo [2.2.1] hept‐5‐ene‐2‐carboxamide]	132 ± 8.4	3.54	–	–	–	–	–	0.22	–	79.6	0.794	–
O=C(NCCCN1CCN(c2ccc(C3=NCCS3)cc2)CC1)C1CC2C=CC1C2 (stereo not drawn) [FG‐15, Exo‐N‐(3‐(4‐(4‐(4,5‐dihydrothiazol‐2‐yl)phenyl)piperazin‐1‐yl)propyl) bicyclo [2.2.1] hept‐5‐ene‐2‐carboxamide]	137 ± 4.7	–	–	–	–	–	2.36	–	17.8	88.1	2.4	Ki (5‐HT2A receptor [2]; read-out: 5‐HT2A pKi (converted)): 4.47 µM; EC50 (5‐HT1A receptor [1]; read-out: pEC50, 5‐HT1A receptor G‐protein stimulation (converted)): 89.1 µM
COc1cc(OC)c(C(=O)CCCCN2CCC3(CC2)NC(=O)NC3=O)cc1NS(=O)(=O)c1ccc(C(F)(F)F)cc1 [RS‐102 221, reference compound]	–	–	–	–	–	–	0.0057	–	–	–	–	5‐HT2C pKi (5‐HT2C receptor): 8.24 ± 0.23
